IC50 data for 34 molecules are collected here from patent publication US20190151312A1, “HEPARAN SULFATE BIOSYNTHESIS INHIBITORS FOR THE TREATMENT OF DISEASES” (BioMarin Pharmaceutical Inc., priority 2014, published 2019).

pIC50: −log10 of the molar value. A value given as a limit tells only on which side of the number the result lay.

The test system of one test is GM01896 cells (MPS II dermal fibroblasts). The test can be described thus: Assay 1: MPS cellular assay, MPS II (heparan sulfate disaccharide biomarkers by LC-MS). It counts as cell-based, human. The settings on record: Assay 1 for MPS II, heparan sulfate disaccharide biomarkers (I2a4, I2a6, I2S0 and/or I2S6), read-out: IC50 Range. In a few lines:
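MPS II patient dermal fibroblasts (GM01896) treated with compound at ≤30 μM for 4 to 21 days. Heparan sulfate GAGs isolated by anion exchange, digested with heparinases I-III, aniline-tagged against [13C6]aniline standards and quantified by LC-MS; IC50 from curve fitting. Viability monitored by alamar blue or ATP.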
Regarding `Cn1nc(N2CCCC2)c2ccc(-c3cc(Nc4ccc(Cl)cc4)nc(N4CCOCC4)n3)cc21` [(4-chlorophenyl)[6-(1-methyl-3-pyrrolidinyl(1H-indazol-6-yl))-2-morpholin-4-ylpyrimidin-4-yl]amine], the negative logarithm of the IC50 (pIC50) is 5.30 to 6.00. Still for that read-out and setting: with `Cc1ccn(-c2ccc(Nc3cc(-c4ccc5c(C)nn(C)c5c4)nc(N4CCOCC4)n3)cc2)n1` [[6-(1,3-dimethyl(1H-indazol-6-yl))-2-morpholin-4-ylpyrimidin-4-yl][4-(3-methylpyrazolyl)phenyl]amine] the figure was more than 6.30; with `Cn1ccc2ccc(Nc3cc(-c4ccc5c(CCCN6CCCC6)nn(C)c5c4)nc(N4CCOCC4)n3)cc21` [(1-methylindol-6-yl) {6-[1-methyl-3-(3-pyrrolidinylpropyl)(1H-indazol-6-yl)]-2-morpholin-4-ylpyrimidin-4-yl}amine], 6.00 to 6.30. Still for that read-out and setting: with `Cn1nc(N2CCOCC2)c2ccc(-c3cc(Nc4ccc(Cl)cc4)nc(N4CCOCC4)n3)cc21` [(4-chlorophenyl)[6-(1-methyl-3-morpholin-4-yl(1H-indazol-6-yl))-2-morpholin-4-ylpyrimidin-4-yl]amine] the figure was 5.30 to 6.00.

The same test, now with this note: Homo sapiens, Fibroblast, Assay 1 for MPS II, heparan sulfate disaccharide biomarkers (I2a4, I2a6, I2S0 and/or I2S6), read-out: IC50 Range.
Regarding `CNC(=O)c1ccc(Nc2cc(-c3ccc4c(c3)ncn4CC3CC3)nc(N3CCOCC3)n2)cn1` [[5-({6-[1-(cyclopropylmethyl)benzimidazol-5-yl]-2-morpholin-4-ylpyrimidin-4-yl}amino)(2-pyridyl)]-N-methylcarboxamide], the pIC50 was 6.00 to 6.30.

Regarding `Cc1nn(C)c2cc(-c3cc(Nc4ccc5cn(C)nc5c4)nc(N4CCOCC4)n3)ccc12` [[6-(1,3-dimethyl(1H-indazol-6-yl))-2-morpholin-4-ylpyrimidin-4-yl](2-methyl(2H-indazol-6-yl))amine], the pIC50 is 5.30 to 6.00.

With `Cc1ccc(Nc2cc(-c3ccc4c(CCN5CCOCC5)nn(C)c4c3)nc(N3CCOCC3)n2)cc1` [{6-[1-methyl-3-(2-morpholin-4-ylethyl)(1H-indazol-6-yl)]-2-morpholin-4-ylpyrimidin-4-yl}(4-methylphenyl)amine], the pIC50 was 6.00 to 6.30. Same read-out and setting: then `Cc1nn(C)c2cc(-c3cc(Nc4ccc5cc[nH]c5c4)nc(N4CCOCC4)n3)ccc12` [[6-(1,3-dimethyl(1H-indazol-6-yl))-2-morpholin-4-ylpyrimidin-4-yl]indol-6-ylamine], with 6.00 to 6.30; and `Cc1nn(C)c2cc(-c3cc(Nc4ccc5cc(C)n(C)c5c4)nc(N4CCOCC4)n3)ccc12` [[6-(1,3-dimethyl(1H-indazol-6-yl))-2-morpholin-4-ylpyrimidin-4-yl](1,2-dimethylindol-6-yl)amine], with 6.00 to 6.30; and `CNC(=O)c1ccc(Nc2cc(-c3ccc4ncn(C)c4c3)nc(N3CCOCC3)n2)cn1` [N-methyl(5-{[6-(1-methylbenzimidazol-6-yl)-2-morpholin-4-ylpyrimidin-4-yl]amino}(2-pyridyl))carboxamide], with 6.00 to 6.30. For `COc1ccc(Cn2cc(-c3ccc(Nc4cc(-c5ccc6c(C)nn(C)c6c5)nc(N5CCOCC5)n4)cc3)cn2)cc1` [[6-(1,3-dimethyl(1H-indazol-6-yl))-2-morpholin-4-ylpyrimidin-4-yl](4-{1-[(4-methoxyphenyl)methyl]pyrazol-4-yl}phenyl)amine], the negative logarithm of the IC50 (pIC50) was 5.30 to 6.00. `Cc1cnn(-c2ccc(Nc3cc(-c4ccc5cnn(C)c5c4)nc(N4CCOCC4)n3)cc2)n1` [[4-(4-methyl(1,2,3-triazol-2-yl))phenyl][6-(1-methyl(1H-indazol-6-yl))-2-morpholin-4-ylpyrimidin-4-yl]amine]: the pIC50 is more than 6.30. The same measure, in the same setting: then `Cn1ncc2ccc(-c3cc(Nc4ccc(-c5cocn5)cc4)nc(N4CCOCC4)n3)cc21` [[6-(1-methyl(1H-indazol-6-yl))-2-morpholin-4-ylpyrimidin-4-yl](4-(1,3-oxazol-4-yl)phenyl)amine], with more than 6.30; and `Cn1nc(NCCCN2CCCC2)c2ccc(-c3cc(Nc4ccc(Cl)cc4)nc(N4CCOCC4)n3)cc21` [(4-chlorophenyl)(6-{1-methyl-3-[(3-pyrrolidinylpropyl)amino](1H-indazol-6-yl)}-2-morpholin-4-ylpyrimidin-4-yl)amine], with 5.30 to 6.00; and `CNC(=O)c1ccc(Nc2cc(-c3ccc4nc[nH]c4c3)nc(N3CCOCC3)n2)cn1` [{5-[(6-benzimidazol-6-yl-2-morpholin-4-ylpyrimidin-4-yl)amino](2-pyridyl)}-N-methylcarboxamide], with 5.30 to 6.00. Take `Clc1ccc(Nc2cc(-c3ccc4c(cnn4CCCN4CCOCC4)c3)nc(N3CCOCC3)n2)cc1` [(4-chlorophenyl){2-morpholin-4-yl-6-[1-(3-morpholin-4-ylpropyl)(1H-indazol-5-yl)]pyrimidin-4-yl}amine]: the pIC50 is 5.30 to 6.00. Still for that read-out and setting: then `Cn1ncc2ccc(-c3cc(Nc4ccc(-c5cc[nH]c5)cc4)nc(N4CCOCC4)n3)cc21` [[6-(1-methyl(1H-indazol-6-yl))-2-morpholin-4-ylpyrimidin-4-yl](4-pyrrol-3-ylphenyl)amine], with 6.00 to 6.30; and `CNC(=O)c1ccc(Nc2cc(-c3ccc4cnn(CCCN5CCOCC5)c4c3)nc(N3CCOCC3)n2)cc1` [N-methyl[4-({2-morpholin-4-yl-6-[1-(3-morpholin-4-ylpropyl)(1H-indazol-6-yl)]pyrimidin-4-yl}amino)phenyl]carboxamide], with more than 6.30.

Turning to `CC(C)NC(=O)c1ccc(Nc2cc(-c3ccc4ncn(C)c4c3)nc(N3CCOCC3)n2)cc1` [(4-{[6-(1-methylbenzimidazol-6-yl)-2-morpholin-4-ylpyrimidin-4-yl]amino}phenyl)-N-(methylethyl)carboxamide], the negative-log IC50 (pIC50) was 5.30 to 6.00. The same measure, in the same setting: with `CN(C)CCNc1nn(C)c2cc(-c3cc(Nc4ccc(Cl)cc4)nc(N4CCOCC4)n3)ccc12` [{2-[(6-{6-[(4-chlorophenyl)amino]-2-morpholin-4-ylpyrimidin-4-yl}-1-methyl(1H-indazol-3-yl))amino]ethyl}dimethylamine] the figure was 6.00 to 6.30; with `Cn1nc(CCN2CCOCC2)c2ccc(-c3cc(Nc4ccc(-c5ncco5)cc4)nc(N4CCOCC4)n3)cc21` [{6-[1-methyl-3-(2-morpholin-4-ylethyl)(1H-indazol-6-yl)]-2-morpholin-4-ylpyrimidin-4-yl}(4-(1,3-oxazol-2-yl)phenyl)amine], 6.00 to 6.30. The same measure, in the same setting: with `CNC(=O)c1ccc(Nc2cc(-c3ccc4ncn(C5CCC5)c4c3)nc(N3CCOCC3)n2)cc1` [(4-{[6-(1-cyclobutylbenzimidazol-6-yl)-2-morpholin-4-ylpyrimidin-4-yl]amino}phenyl)-N-methylcarboxamide] the figure was more than 6.30; with `Cc1nn(C)c2cc(-c3cc(Nc4ccc(-c5nnc(C(C)C)[nH]5)cc4)nc(N4CCOCC4)n3)ccc12` [[6-(1,3-dimethyl(1H-indazol-6-yl))-2-morpholin-4-ylpyrimidin-4-yl]{4-[5-(methylethyl)(4H-1,2,4-triazol-3-yl)]phenyl}amine], more than 6.30; with `CNC(=O)c1ccc(Nc2cc(-c3ccc4cnn(C)c4c3)nc(N3CCOCC3)n2)cn1` [N-methyl(5-{[6-(1-methyl(1H-indazol-6-yl))-2-morpholin-4-ylpyrimidin-4-yl]amino}(2-pyridyl))carboxamide], 6.00 to 6.30. For `Cn1nc(CCCN2CCCC2)c2ccc(-c3cc(Nc4ccc(Cl)cc4)nc(N4CCOCC4)n3)cc21` [(4-chlorophenyl){6-[1-methyl-3-(3-pyrrolidinylpropyl)(1H-indazol-6-yl)]-2-morpholin-4-ylpyrimidin-4-yl}amine], the pIC50 was 6.00 to 6.30. Turning to `CNC(=O)c1ccc(Nc2cc(-c3ccc4nc(C)n(CC5CC5)c4c3)nc(N3CCOCC3)n2)cc1` [[4-({6-[1-(cyclopropylmethyl)-2-methylbenzimidazol-6-yl]-2-morpholin-4-ylpyrimidin-4-yl}amino)phenyl]-N-methylcarboxamide], the negative-log IC50 (pIC50) is more than 6.30. With `Cn1cc2ccc(Nc3cc(-c4ccc5cnn(C)c5c4)nc(N4CCOCC4)n3)cc2n1` [[6-(1-methyl(1H-indazol-6-yl))-2-morpholin-4-ylpyrimidin-4-yl](2-methyl(2H-indazol-6-yl))amine], the pIC50 is 5.30 to 6.00. As to `Cc1nn(C)c2cc(-c3cc(Nc4ccc(-c5cn(C)cn5)cc4)nc(N4CCOCC4)n3)ccc12` [[6-(1,3-dimethyl(1H-indazol-6-yl))-2-morpholin-4-ylpyrimidin-4-yl][4-(1-methylimidazol-4-yl)phenyl]amine], the pIC50 is 5.30 to 6.00.

Consider `Cc1nc2ccc(-c3cc(Nc4ccc(Cl)cc4)nc(N4CCOCC4)n3)cc2n1CCCN1CCOCC1` [(4-chlorophenyl){6-[2-methyl-1-(3-morpholin-4-ylpropyl)benzimidazol-6-yl]-2-morpholin-4-ylpyrimidin-4-yl}amine], for which the pIC50 is 5.30 to 6.00.

Turning to `Cn1nc(CCN2CCCC2)c2ccc(-c3cc(Nc4ccc(Cl)cc4)nc(N4CCOCC4)n3)cc21` [(4-chlorophenyl){6-[1-methyl-3-(2-pyrrolidinylethyl)(1H-indazol-6-yl)]-2-morpholin-4-ylpyrimidin-4-yl}amine], the pIC50 was 6.00 to 6.30. On the same count and under the same terms, with `CNC(=O)c1ccc(Nc2cc(-c3ccc4c(c3)ncn4C)nc(N3CCOCC3)n2)cn1` [N-methyl(5-{[6-(1-methylbenzimidazol-5-yl)-2-morpholin-4-ylpyrimidin-4-yl]amino}(2-pyridyl))carboxamide] the figure was 6.00 to 6.30; with `Cn1ccc2ccc(Nc3cc(-c4ccc5c(CCN)nn(C)c5c4)nc(N4CCOCC4)n3)cc21` [{6-[3-(2-aminoethyl)-1-methyl(1H-indazol-6-yl)]-2-morpholin-4-ylpyrimidin-4-yl}(1-methylindol-6-yl)amine], more than 6.30. Same read-out and setting: with `CNC(=O)c1ccc(Nc2cc(-c3ccc4c(C)nn(C)c4c3)nc(N3CCOCC3)n2)cc1` [(4-{[6-(1,3-dimethyl(1H-indazol-6-yl))-2-morpholin-4-ylpyrimidin-4-yl]amino}phenyl)-N-methylcarboxamide] the figure was more than 6.30; with `Clc1ccc(Nc2cc(-c3ccc4cnn(C5CC5)c4c3)nc(N3CCOCC3)n2)cc1` [(4-chlorophenyl)[6-(1-cyclopropyl(1H-indazol-6-yl))-2-morpholin-4-ylpyrimidin-4-yl]amine], 5.30 to 6.00.
